Entries after “also recorded” stand apart in the source; their conditions may differ.
Key:
[1] = target: T1, COX-2 in stimulated RAW 264.7 macrophages (Mus musculus, UniProt Q05769); test: RAW 264.7 macrophage inhibition assay (Compound A); type: cell-based
T1 construct: endogenous in cells; host or cells: RAW 264.7 macrophages stimulated with LPS (and GM-CSF / interferon γ where described)
T1 sequence (Q05769 18-604): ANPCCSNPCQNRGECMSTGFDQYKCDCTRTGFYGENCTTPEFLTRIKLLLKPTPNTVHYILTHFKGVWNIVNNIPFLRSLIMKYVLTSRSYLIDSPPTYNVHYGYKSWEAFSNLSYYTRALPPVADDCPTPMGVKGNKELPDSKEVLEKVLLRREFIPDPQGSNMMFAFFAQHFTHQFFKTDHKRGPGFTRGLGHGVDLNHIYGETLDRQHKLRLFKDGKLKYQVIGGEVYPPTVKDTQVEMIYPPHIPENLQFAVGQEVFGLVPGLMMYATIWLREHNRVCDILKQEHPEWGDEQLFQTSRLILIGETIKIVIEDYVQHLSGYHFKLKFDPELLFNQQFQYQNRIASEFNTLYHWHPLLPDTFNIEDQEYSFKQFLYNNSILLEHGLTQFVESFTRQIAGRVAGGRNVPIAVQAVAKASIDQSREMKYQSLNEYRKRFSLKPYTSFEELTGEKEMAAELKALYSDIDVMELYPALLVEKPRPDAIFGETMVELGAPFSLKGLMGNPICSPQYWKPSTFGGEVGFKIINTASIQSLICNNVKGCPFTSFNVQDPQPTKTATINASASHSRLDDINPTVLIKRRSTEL

[2] = test system: peripheral tissue eCB, NAE, MAG and PG levels; test: Peripheral tissue NAE, MAG and PG levels after i.p. injection; type: in vivo, mice
Protocol: Mice were sacrificed by cervical dislocation and decapitation. The brain, lungs, liver, stomach, small intestines, and kidneys were then rapidly removed and frozen on a metal block in dry ice. The tissue was then placed in a tube and stored at −80° C. until extraction, usually one day after harvesting. For PG and eCB analysis, lipid extraction from tissue was carried out as described in Patel et al., 2009.
Analytes were quantified using LC-MS/MS on a Quantum triple-quadrupole mass spectrometer in positive-ion mode using selected reaction monitoring. Detection of eicosanoids was performed as described in Kingsley & Marnett, 2007. For fatty acid analysis the mobile phases used were 80 μM AgOAc with 0.1% (v/v) acetic acid in H2O (solvent A) and 120 μM AgOAc with 0.1% (v/v) acetic acid in MeOH (solvent B). The analytes were eluted using a gradient from 20% A to 99% B over 5 minutes. The transitions used were m/z 300→282 for PEA, m/z 328→310 for SEA, m/z 434→416 for OEA, m/z 456→438 for AEA, m/z 464→446 for AEA-d8, m/z 331→257 for 2-PG, m/z 359→285 for 2-SG, m/z 463→389 for 2-OG, m/z 485→411 for 2-AG, m/z 493→419 for 2-AG-d8, m/z 519→409 for AA, and m/z 527→417 for AA-d8. Peak areas for the analytes were normalized to the appropriate internal standard and then normalized to tissue mass for in vivo samples. […]

ICR mice [3] = test: Novel open field test; type: in vivo
Protocol: Animals were tested for open-field activity in a novel environment one hour after i.p. injection of compound as described in Sumislawski et al., 2011. Briefly, one-hour sessions were performed using automated experimental chambers (27.9 27.9 cm; MEDOFA-510; MED Associates, Ga., Vermont, United States of America) under constant illumination within a sound-attenuated room. Analysis of open field activity was performed using Activity Monitor v5.10 (MED Associates).

ICR mice [4] = test: Elevated plus-maze (EPM); type: in vivo; settings: 10 mg/kg
ICR mice [5] = test: Novel object recognition; type: in vivo; settings: 10 mg/kg i.p., prior to object memory retrieval
Protocol: Mice were handled 4 days prior to training for at least 1 min per day. During pre-training, mice were placed in an open Plexiglas rectangular chamber for 10 minutes in order for the mice to become familiar with the testing environment. Twenty-four hours later, the mice were placed into the same rectangular chamber with two identical sample objects, yellow rubber ducks, for 10 minutes in order for the mice to become familiar with the objects. During training, the sample objects were placed in opposite corners in the back of the chamber 5 cm from each wall and secured by weight to the floor of the chamber. Twenty-four hours later, the mice were placed into the chamber again with one sample or familiar object and a novel object, a white leaf statue, for 5 minutes. During testing, the objects were placed in opposite corners in the back of the chamber 5 cm from each wall and secured by weight to the floor of the chamber.
To determine exploration time with the sample and novel objects, each mouse was timed when interacting with the sample or novel object when the nose of the mouse was in contact with the object or directed toward the object within a 2 cm distance of the object. […] In addition, a discrimination ratio (e.g., ratio of a mouse's interaction with a novel object to that mouse's total interaction with both sample and novel objects) was determined. […]

[6] = Detection of Compound A in brain extract; settings: 2 hours after i.p. injection, LC-MS/MS
[7] = lipopolysaccharide-activated RAW 264.7 macrophages
[8] = stimulated RAW 264.7 macrophages
[9] = 10 mg/kg, two hours after injection

COc1ccc2c(c1)c(CC(=O)N1CCOCC1)c(C)n2C(=O)c1ccc(Cl)cc1 [Compound A, 2-[1-(4-Chloro-benzoyl)-5-methoxy-2-methyl-1H-indol-3-yl]-1-morpholin-4-yl-ethanone]
Inhibition of AA oxygenation in cells [1, 7]: without inhibiting AA oxygenation | Inhibition of eCB oxygenation by COX-2 in cells [1, 7]: effective at inhibiting eCB oxygenation | 2-AG levels [1, 8]: increasing; also recorded: concentration-dependently increased | AA levels [1, 8]: without increasing AA levels | 2-AG levels ([1]; stimulated RAW 264.7 macrophages, 3 μM (p=0.007)): significantly increased | AEA levels in the kidney [2, 9]: significantly increased | AEA levels in the lung [2, 9]: significantly increased | AEA levels in the small intestine [2, 9]: significantly increased | AEA levels in the stomach [2, 9]: significantly increased | Liver NAE levels ([2]; liver): did not affect | 2-AG or any other MAG in any tissue ([2]; peripheral tissues, 10 mg/kg): no effect | Levels of any other NAE in any tissue ([2]; peripheral tissues, 10 mg/kg): did not affect | PG levels in peripheral tissues ([2]; stomach, heart, kidney, lung, intestine): no effect | Center distance travelled and center time in the open-field arena (ICR mice [3]; 10 mg/kg): increased | Open field behavior in mice treated with Rimonabant (ICR mice [3]; Rimonabant 3 mg/kg): no significant behavioral effect | Exploratory behavior and center time exploration in the open field (Example 8) (ICR mice [3]; most pronounced during minutes 40-60): dose-dependently increased | Open field behavior (center distance or time) in CB1^(−/−) mice (ICR mice [3]; mouse, in vivo): did not produce any behavioral effect; also recorded: did not increase | Open field behavior in COX-2^(−/−) mice (ICR mice [3]; mouse, in vivo): did not produce any significant behavioral effects | Open field behavior in vehicle-pretreated mice (ICR mice [3]; mouse, in vivo): exerting anxiolytic actions | Open field behavior in wild type littermates of COX-2^(−/−) mice (ICR mice [3]; mouse, in vivo): normal anxiolytic-like response | Hypolocomotion (ICR mice [3]; open field data): did not cause hypolocomotion | Open arm latency (ICR mice [4]): significantly reduced; also recorded: decreased | Other EPM parameters (open arm time, total distance traveled) (ICR mice [4]): did not affect; also recorded: did not increase | Memory deficits in the novel object recognition assay (ICR mice [5]): did not induce memory deficits | Indomethacin in brain extract after Compound A treatment [6]: not detected | Presence of compound in brain [6]: present in the brain
